Reference: ChEMBL document CHEMBL5625233, “Exploring positions 6 and 7 of a quinazoline-based scaffold leads to changes in selectivity and potency towards RIPK2/3 kinases” (Eur J Med Chem, 2023)
The source made the active and inactive calls. The calls are words filed in the database; no cut-off is given here.

Legend:
[1] = biological target: T1, Receptor-interacting serine/threonine-protein kinase 2 (Homo sapiens, UniProt O43353); experiment: Inhibition of N-terminal polyHis-tagged human RIPK2 (8 to 310 residues) expressed in Sf9 cells using MBP as substrate preincubated for 15 mins followed by ATP addition measured after 90 mins by ADP-Glo assay
T1 sequence (O43353 whole entry, the tested form may be a part): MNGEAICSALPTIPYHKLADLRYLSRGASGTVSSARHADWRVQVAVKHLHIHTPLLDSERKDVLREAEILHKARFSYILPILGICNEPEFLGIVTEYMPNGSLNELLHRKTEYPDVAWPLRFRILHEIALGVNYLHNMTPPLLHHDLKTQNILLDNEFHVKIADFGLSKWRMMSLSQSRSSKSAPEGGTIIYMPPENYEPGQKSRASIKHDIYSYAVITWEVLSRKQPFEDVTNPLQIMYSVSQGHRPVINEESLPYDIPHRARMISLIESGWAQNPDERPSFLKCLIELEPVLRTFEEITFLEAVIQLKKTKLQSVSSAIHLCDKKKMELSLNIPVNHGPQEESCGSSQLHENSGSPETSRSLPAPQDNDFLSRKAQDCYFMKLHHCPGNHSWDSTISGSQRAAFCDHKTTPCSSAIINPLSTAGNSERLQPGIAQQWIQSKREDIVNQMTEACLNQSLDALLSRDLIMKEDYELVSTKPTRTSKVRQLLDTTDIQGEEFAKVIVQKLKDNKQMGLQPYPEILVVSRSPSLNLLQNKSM

[2] = biological target: T2, Receptor-interacting serine/threonine-protein kinase 1 (Homo sapiens, UniProt Q13546); experiment: Inhibition of N-terminal polyHis-tagged human RIPK1 (1 to 321 residues) expressed in Sf9 cells using MBP as substrate preincubated for 15 mins followed by ATP addition measured after 90 mins by ADP-Glo assay
T2 sequence (Q13546 whole entry): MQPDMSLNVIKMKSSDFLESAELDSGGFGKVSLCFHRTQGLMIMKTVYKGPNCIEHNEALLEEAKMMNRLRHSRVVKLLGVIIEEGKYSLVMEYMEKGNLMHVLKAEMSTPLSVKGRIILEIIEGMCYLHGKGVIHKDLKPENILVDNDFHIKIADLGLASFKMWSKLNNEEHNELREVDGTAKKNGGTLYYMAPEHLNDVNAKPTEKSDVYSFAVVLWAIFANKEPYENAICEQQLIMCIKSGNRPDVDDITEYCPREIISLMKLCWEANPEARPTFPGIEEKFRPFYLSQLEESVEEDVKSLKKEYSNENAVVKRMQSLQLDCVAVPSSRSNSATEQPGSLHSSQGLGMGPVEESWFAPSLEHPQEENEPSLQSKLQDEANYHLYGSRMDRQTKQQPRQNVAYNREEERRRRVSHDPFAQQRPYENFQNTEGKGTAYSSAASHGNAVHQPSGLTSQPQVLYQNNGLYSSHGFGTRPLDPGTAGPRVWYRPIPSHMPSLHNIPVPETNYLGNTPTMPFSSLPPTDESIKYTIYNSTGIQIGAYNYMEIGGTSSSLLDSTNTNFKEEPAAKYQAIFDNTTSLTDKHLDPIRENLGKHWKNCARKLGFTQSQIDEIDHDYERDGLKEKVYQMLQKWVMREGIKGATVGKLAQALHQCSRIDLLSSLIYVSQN

[3] = biological target: T3, Receptor-interacting serine/threonine-protein kinase 3 (Homo sapiens, UniProt Q9Y572); experiment: Inhibition of N-terminal polyHis-tagged human RIPK3 (1 to 307 residues) expressed in Sf9 cells using MBP as substrate preincubated for 15 mins followed by ATP addition measured after 90 mins by ADP-Glo assay
Target sequence in this assay (Q9Y572 whole entry, the tested form may be a part): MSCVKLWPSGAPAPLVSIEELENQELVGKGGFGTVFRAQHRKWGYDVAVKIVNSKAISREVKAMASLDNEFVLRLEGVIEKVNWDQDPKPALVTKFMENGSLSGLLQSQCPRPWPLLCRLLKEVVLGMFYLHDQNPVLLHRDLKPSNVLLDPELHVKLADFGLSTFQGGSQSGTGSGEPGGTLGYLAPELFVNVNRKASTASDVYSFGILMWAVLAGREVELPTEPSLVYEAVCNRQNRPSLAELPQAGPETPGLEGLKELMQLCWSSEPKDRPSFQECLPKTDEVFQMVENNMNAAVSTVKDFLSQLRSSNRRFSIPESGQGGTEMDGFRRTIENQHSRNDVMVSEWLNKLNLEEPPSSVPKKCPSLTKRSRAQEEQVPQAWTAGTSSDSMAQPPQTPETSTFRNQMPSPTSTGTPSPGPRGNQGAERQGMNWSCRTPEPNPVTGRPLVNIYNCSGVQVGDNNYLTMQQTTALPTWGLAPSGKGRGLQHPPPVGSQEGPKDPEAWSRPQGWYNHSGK

[4] = biological target: T4, Receptor-interacting serine/threonine-protein kinase 4 (Homo sapiens, UniProt P57078); experiment: Inhibition of N-terminal polyHis-tagged human RIPK4 (1 to 321 residues) expressed in Sf9 cells using MBP as substrate preincubated for 15 mins followed by ATP addition measured after 90 mins by ADP-Glo assay
T4 sequence (P57078 whole entry): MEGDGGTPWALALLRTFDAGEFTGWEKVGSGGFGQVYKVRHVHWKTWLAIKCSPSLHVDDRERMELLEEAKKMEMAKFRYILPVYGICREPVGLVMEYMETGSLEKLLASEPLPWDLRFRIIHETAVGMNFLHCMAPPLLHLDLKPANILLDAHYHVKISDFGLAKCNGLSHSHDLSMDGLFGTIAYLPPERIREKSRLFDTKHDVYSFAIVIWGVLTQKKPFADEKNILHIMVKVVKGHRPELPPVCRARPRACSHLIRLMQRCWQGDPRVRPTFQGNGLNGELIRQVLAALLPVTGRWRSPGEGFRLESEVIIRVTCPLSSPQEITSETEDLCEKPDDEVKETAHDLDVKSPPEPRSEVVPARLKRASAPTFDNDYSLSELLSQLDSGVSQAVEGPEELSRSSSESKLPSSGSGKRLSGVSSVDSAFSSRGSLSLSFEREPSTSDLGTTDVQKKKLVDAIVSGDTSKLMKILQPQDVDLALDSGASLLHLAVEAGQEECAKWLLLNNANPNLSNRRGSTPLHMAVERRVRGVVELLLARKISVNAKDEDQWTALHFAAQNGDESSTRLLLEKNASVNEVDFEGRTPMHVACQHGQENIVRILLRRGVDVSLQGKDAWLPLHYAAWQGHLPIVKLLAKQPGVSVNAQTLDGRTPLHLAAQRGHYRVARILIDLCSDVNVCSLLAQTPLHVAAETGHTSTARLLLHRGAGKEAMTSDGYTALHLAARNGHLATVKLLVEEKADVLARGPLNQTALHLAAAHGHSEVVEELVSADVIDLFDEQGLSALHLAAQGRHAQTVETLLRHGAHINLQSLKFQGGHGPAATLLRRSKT

[5] = biological target: T1, Receptor-interacting serine/threonine-protein kinase 2; experiment: Inhibition of RIPK2-mediated NF-kappaB signalling in C14-TriLAN-Gly-treated human THP-1 cells preincubated for 30 mins followed by C14-TriLAN-Gly addition measured after 24 hrs by luminescence based assay; format: cell-based
[6] = biological target: T1, Receptor-interacting serine/threonine-protein kinase 2; experiment: Inhibition of RIPK2-mediated NF-kappaB signalling in MDP-treated human THP-1 cells preincubated for 30 mins followed by MDP addition measured after 24 hrs by luminescence based assay; format: cell-based
[7] = biological target: T1, Receptor-interacting serine/threonine-protein kinase 2; experiment: Inhibition of RIPK2-mediated NF-kappaB signalling in C14-TriLAN-Gly-treated human THP-1 cells upto 10 uM preincubated for 30 mins followed by C14-TriLAN-Gly addition measured after 24 hrs by luminescence based assay; format: cell-based
[8] = biological target: T3, Receptor-interacting serine/threonine-protein kinase 3; experiment: Inhibition of N-terminal polyHis-tagged human RIPK3 (1 to 307 residues) expressed in Sf9 cells using MBP as substrate upto 10 uM preincubated for 15 mins followed by ATP addition measured after 90 mins by ADP-Glo assay; conditions: time 105.0 min
Target sequence in this assay (Q9Y572 whole entry, looked up, the tested form may be a part): as the sequence (Q9Y572 whole entry, the tested form may be a part) above

[9] = biological target: T1, Receptor-interacting serine/threonine-protein kinase 2; experiment: Inhibition of RIPK2-mediated NF-kappaB signalling in MDP-treated human THP-1 cells upto 10 uM preincubated for 30 mins followed by MDP addition measured after 24 hrs by luminescence based assay; format: cell-based

Row | SMILES | IC50 [1] | IC50 [2] | IC50 [3] | IC50 [4] | IC50 [5] | IC50 [6] | IC50 [7] | inhibition [8] | IC50 [9]
1 | Cn1nc(C(F)(F)F)cc1-c1cc2c(Nc3ccc4scnc4c3)ncnc2cc1Cl | 324 nM | > 50000 nM | 2600 nM | > 50000 nM | 4570 nM | 3360 nM | – | – | –
2 | OCc1cccc(-c2cc3ncnc(Nc4ccc5scnc5c4)c3cc2-c2cccs2)c1 | 5 nM | > 50000 nM | 551 nM | > 50000 nM | 432 nM | 396 nM | – | – | –
3 | Cc1ccsc1-c1cc2c(Nc3ccc4scnc4c3)ncnc2cc1Cl | 52 nM | > 50000 nM | – | > 50000 nM | – | – | Not Active | inactive | Not Active
4 | Cc1nc(-c2ccc3ncnc(Nc4ccc5scnc5c4)c3c2)sc1C | 14 nM | > 50000 nM | – | > 50000 nM | – | – | Not Active | inactive | Not Active
5 | Cn1cc(-c2cc3c(Nc4ccc5scnc5c4)ncnc3cc2Cl)cn1 | 4 nM | > 50000 nM | – | > 50000 nM | 67 nM | 63 nM | – | inactive | –
6 | Cc1ccsc1-c1ccc2ncnc(Nc3ccc4scnc4c3)c2c1 | 6 nM | > 50000 nM | 388 nM | > 50000 nM | 438 nM | 362 nM | – | – | –
7 | Cn1cccc1-c1ccc2ncnc(Nc3ccc4scnc4c3)c2c1 | 22 nM | > 50000 nM | 2900 nM | > 50000 nM | 726 nM | 523 nM | – | – | –
8 | Cc1ncc(-c2ccc3ncnc(Nc4ccc5scnc5c4)c3c2)n1C | 9 nM | > 50000 nM | – | > 50000 nM | 143 nM | 240 nM | – | inactive | –
9 | Cn1cc(-c2ccc3ncnc(Nc4ccc5scnc5c4)c3c2)cn1 | 4 nM | > 50000 nM | 1500 nM | > 50000 nM | 47 nM | 38 nM | – | – | –
10 | CC(C)(C)S(=O)(=O)c1cc2c(Nc3ccc4scnc4c3)ncnc2cc1OCCOP(=O)(O)O | 4 nM | – | – | – | 92 nM | 38 nM | – | inactive | –
11 | Cc1cscc1-c1cc2c(Nc3ccc4scnc4c3)ncnc2cc1Cl | 104 nM | > 50000 nM | – | > 50000 nM | – | 2080 nM | Not Active | inactive | –
12 | CC(C)S(=O)(=O)c1ccc2nccc(Nc3ccc4scnc4c3)c2c1 | 2 nM | – | – | – | 9 nM | 4 nM | – | – | –
13 | Clc1cc2ncnc(Nc3ccc4scnc4c3)c2cc1-c1ccccc1 | – | > 50000 nM | – | > 50000 nM | – | – | Not Active | inactive | Not Active
14 | Cn1ccnc1-c1ccc2ncnc(Nc3ccc4scnc4c3)c2c1 | 12 nM | > 50000 nM | – | > 50000 nM | 239 nM | 273 nM | – | inactive | –
15 | Clc1cc2ncnc(Nc3ccc4scnc4c3)c2cc1-c1cc[nH]n1 | 10 nM | > 50000 nM | – | > 50000 nM | 155 nM | – | – | inactive | Not Active
16 | Cn1nccc1-c1cc2c(Nc3ccc4scnc4c3)ncnc2cc1Cl | 18 nM | > 50000 nM | 1600 nM | > 50000 nM | 313 nM | 318 nM | – | – | –
17 | Cc1ncc(-c2cc3c(Nc4ccc5scnc5c4)ncnc3cc2Cl)s1 | 5 nM | > 50000 nM | – | > 50000 nM | 156 nM | 103 nM | – | inactive | –
18 | Cc1csc(-c2ccc3ncnc(Nc4ccc5scnc5c4)c3c2)n1 | 5 nM | > 50000 nM | 382 nM | > 50000 nM | 2750 nM | – | – | – | Not Active
19 | Cn1cccc1-c1cc2c(Nc3ccc4scnc4c3)ncnc2cc1Cl | 8 nM | > 50000 nM | – | > 50000 nM | – | – | Not Active | inactive | Not Active
20 | Cc1ncc(-c2cc3c(Nc4ccc5scnc5c4)ncnc3cc2Cl)n1C | 10 nM | > 50000 nM | – | > 50000 nM | 189 nM | 96 nM | – | inactive | –
21 | Cc1ncc(-c2ccc3ncnc(Nc4ccc5scnc5c4)c3c2)s1 | 4 nM | > 50000 nM | 6000 nM | > 50000 nM | 136 nM | 108 nM | – | – | –
22 | COc1cccc(-c2ccc3ncnc(Nc4ccc5scnc5c4)c3c2)n1 | 49 nM | > 50000 nM | – | > 50000 nM | – | – | Not Active | inactive | Not Active
23 | Cc1nc(-c2cc3c(Nc4ccc5scnc5c4)ncnc3cc2Cl)sc1C | – | > 50000 nM | – | > 50000 nM | – | – | Not Active | inactive | Not Active
24 | Cn1cnc(-c2ccc3ncnc(Nc4ccc5scnc5c4)c3c2)c1 | 11 nM | > 50000 nM | – | > 50000 nM | 209 nM | 95 nM | – | inactive | –
25 | c1nc(Nc2ccc3scnc3c2)c2cc(-c3cc[nH]n3)ccc2n1 | 6 nM | > 50000 nM | 2100 nM | > 50000 nM | 114 nM | 68 nM | – | – | –
26 | Cn1cnc(-c2cc3c(Nc4ccc5scnc5c4)ncnc3cc2Cl)c1 | 10 nM | > 50000 nM | – | > 50000 nM | 208 nM | 140 nM | – | inactive | –
27 | c1ccc(-c2ccc3ncnc(Nc4ccc5scnc5c4)c3c2)cc1 | 18 nM | > 50000 nM | 3600 nM | > 50000 nM | 4360 nM | 2130 nM | – | – | –
28 | Clc1cc2ncnc(Nc3ccc4scnc4c3)c2cc1-c1cccs1 | 14 nM | > 50000 nM | – | > 50000 nM | – | – | Not Active | inactive | Not Active
29 | Cc1csc(-c2cc3c(Nc4ccc5scnc5c4)ncnc3cc2Cl)n1 | – | > 50000 nM | – | > 50000 nM | – | – | Not Active | inactive | Not Active
30 | Cc1cscc1-c1ccc2ncnc(Nc3ccc4scnc4c3)c2c1 | 29 nM | > 50000 nM | 1900 nM | > 50000 nM | 4430 nM | 1530 nM | – | – | –
